Assay results as given in PubChem BioAssay (NCI).
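Compound exposure: 48 hours, 5 concentrations, 96-well plates. TGI: total growth inhibition.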

Experiments:
Test in all cases: inhibition of tumour cell growth, NCI panel, 48 h
786-0 renal = test system: 786-0 renal
K-562 leukemia = test system: K-562 leukemia
NCI-H460 lung = test system: NCI-H460 lung
MALME-3M melanoma = test system: MALME-3M melanoma
M14 melanoma = test system: M14 melanoma
SR leukemia = test system: SR leukemia
KM20L2 colon = test system: KM20L2 colon
HT29 colon = test system: HT29 colon
EKVX NSCLC = test system: EKVX NSCLC
LXFL 529 NSCLC = test system: LXFL 529 NSCLC
TK-10 renal = test system: TK-10 renal
DLD-1 colon = test system: DLD-1 colon
HCT-15 colon = test system: HCT-15 colon
HL-60(TB) leukemia = test system: HL-60(TB) leukemia
LOX IMVI melanoma = test system: LOX IMVI melanoma
CAKI-1 renal = test system: CAKI-1 renal
SN12C renal = test system: SN12C renal
SK-MEL-28 melanoma = test system: SK-MEL-28 melanoma
SW-620 colon = test system: SW-620 colon
HCT-116 colon = test system: HCT-116 colon
HOP-18 NSCLC = test system: HOP-18 NSCLC
SK-OV-3 ovarian = test system: SK-OV-3 ovarian
NCI-H522 lung = test system: NCI-H522 lung
ACHN renal = test system: ACHN renal
IGROV1 ovarian = test system: IGROV1 ovarian
HCC-2998 colon = test system: HCC-2998 colon
SF-268 CNS = test system: SF-268 CNS
A549 NSCLC = test system: A549 NSCLC
XF 498 CNS = test system: XF 498 CNS
SNB-78 CNS = test system: SNB-78 CNS
SNB-75 CNS = test system: SNB-75 CNS
SK-MEL-2 melanoma = test system: SK-MEL-2 melanoma
HOP-62 NSCLC = test system: HOP-62 NSCLC
SK-MEL-5 melanoma = test system: SK-MEL-5 melanoma
RXF 393 renal = test system: RXF 393 renal
SF-295 CNS = test system: SF-295 CNS
M19-MEL melanoma = test system: M19-MEL melanoma
NCI-H23 lung = test system: NCI-H23 lung
OVCAR-4 ovarian = test system: OVCAR-4 ovarian
OVCAR-3 ovarian = test system: OVCAR-3 ovarian
DMS 273 small cell lung = test system: DMS 273 small cell lung
UACC-257 melanoma = test system: UACC-257 melanoma
SNB-19 CNS = test system: SNB-19 CNS
OVCAR-8 ovarian = test system: OVCAR-8 ovarian
OVCAR-5 ovarian = test system: OVCAR-5 ovarian
COLO 205 colon = test system: COLO 205 colon
RPMI-8226 leukemia = test system: RPMI-8226 leukemia
UACC-62 melanoma = test system: UACC-62 melanoma
U251 CNS = test system: U251 CNS
UO-31 renal = test system: UO-31 renal
NCI-H226 lung = test system: NCI-H226 lung
MOLT-4 leukemia = test system: MOLT-4 leukemia
KM12 colon = test system: KM12 colon
CCRF-CEM leukemia = test system: CCRF-CEM leukemia
SF-539 CNS = test system: SF-539 CNS
HOP-92 NSCLC = test system: HOP-92 NSCLC
A498 renal = test system: A498 renal
DMS 114 small cell lung = test system: DMS 114 small cell lung

Measured: TGI

O=C1C(Cl)C(c2cc(Br)cc(Br)c2O)N1n1cnc2ccccc2c1=O (stereo not given)
48 µM: HL-60(TB) leukemia
88.3 µM: CAKI-1 renal
46.7 µM: SK-MEL-2 melanoma
37.4 µM: RPMI-8226 leukemia
30.4 µM: LOX IMVI melanoma
49.5 µM: CCRF-CEM leukemia
83.8 µM: HOP-18 NSCLC
93.2 µM: COLO 205 colon
42.3 µM: SK-OV-3 ovarian
76.1 µM: UO-31 renal
62.9 µM: MALME-3M melanoma
85.9 µM: EKVX NSCLC
43.1 µM: OVCAR-4 ovarian
36.2 µM: HCT-116 colon
62.2 µM: M19-MEL melanoma
49.1 µM: NCI-H522 lung
54.2 µM: SF-295 CNS
30.1 µM: MOLT-4 leukemia
89.3 µM: SNB-19 CNS
42.2 µM: M14 melanoma
94.9 µM: OVCAR-8 ovarian
61.2 µM: XF 498 CNS
35.1 µM: SR leukemia
85.6 µM: SNB-75 CNS
71.8 µM: OVCAR-5 ovarian
79.4 µM: OVCAR-3 ovarian
70.5 µM: SK-MEL-28 melanoma
31.8 µM: U251 CNS
45.3 µM: UACC-257 melanoma
71.5 µM: K-562 leukemia
92.5 µM: KM12 colon
61.8 µM: NCI-H226 lung
86.3 µM: NCI-H23 lung
49.3 µM: UACC-62 melanoma
70.7 µM: IGROV1 ovarian
63.7 µM: RXF 393 renal
91.2 µM: SN12C renal
35.6 µM: SK-MEL-5 melanoma
not listed: SF-539 CNS | HOP-92 NSCLC | A498 renal | DMS 114 small cell lung
> 100 µM: all other assays above

CCCc1nc(N)nc(C(=O)Nc2cccc(C(F)(F)F)c2)c1CC
not listed: SR leukemia | LXFL 529 NSCLC | SK-OV-3 ovarian | NCI-H522 lung | COLO 205 colon | CCRF-CEM leukemia
> 100 µM: all other assays above

O=Cc1c(O)ccc2ccc(O)c(-c3c(O)ccc4ccc(O)cc34)c12
95.1 µM: NCI-H226 lung
not listed: EKVX NSCLC | HCC-2998 colon | XF 498 CNS | SNB-19 CNS
> 100 µM: all other assays above
